The structures appear in SMILES notation.

In this experiment the test system is Phospho-Rb (Ser807/811) in MCF7 cells. Nature of the experiment: Phospho-Rb expression inhibition in MCF7 cells quantified by in cell Western. It counts as cell-based, human. The settings on record: Homo sapiens, MCF7, 24 h, 24 hours, in cell Western, read-out: MCF7 pRb IC50. A digest of the protocol: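 MCF7 cells were seeded at 20,000/well, grown overnight, then treated 24 h at 37 °C with compound dilutions (0.1% DMSO from 1000× stocks). Fixed cells were co-stained for phospho-Rb Ser807/811 and total Rb. Near-infrared dual-channel in-cell Western imaging was the read-out.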
With `Cc1nc2c(F)cc(-c3nc(N[C@@H]4C[C@H]5CO[C@H](O5)[C@H]4O)ncc3Cl)cc2n1C(C)C` [Compound 25, (1S,3R,4S,5R)-3-((5-chloro-4-(4-fluoro-1-isopropyl-2-methyl-1H-benzo[d]imidazol-6-yl)pyrimidin-2-yl)amino)-6,8-dioxabicyclo[3.2.1]octan-4-ol], the IC50 was 40 to 150 nM.
Next, `Cc1c(C)n(C(C)C)c2cc(-c3nc(N[C@@H]4C[C@H]5CO[C@H](O5)[C@H]4O)ncc3Cl)ccc2c1=O` [Compound 191, 7-(5-chloro-2-(((1S,3R,4S,5R)-4-hydroxy-6,8-dioxabicyclo[3.2.1]octan-3-yl)amino)pyrimidin-4-yl)-1-isopropyl-2,3-dimethylquinolin-4(1H)-one]: 40 to 150 nM; `CNCc1c(C)c(=O)c2ccc(-c3nc(N[C@@H]4C[C@H]5CO[C@H](O5)[C@H]4O)ncc3F)cc2n1C(C)C` [Compound 194, 7-(5-fluoro-2-(((1S,3R,4S,5R)-4-hydroxy-6,8-dioxabicyclo[3.2.1]octan-3-yl)amino)pyrimidin-4-yl)-1-isopropyl-3-methyl-2-((methylamino)methyl)quinolin-4(1H)-one]: 40 to 150 nM; `Cc1c(CN(C)C)n(C(C)C)c2cc(-c3nc(N[C@@H]4C[C@H]5CO[C@H](O5)[C@H]4O)ncc3F)ccc2c1=O` [Compound 195, 2-((dimethylamino)methyl)-7-(5-fluoro-2-(((1S,3R,4S,5R)-4-hydroxy-6,8-dioxabicyclo [3.2.1]octan-3-yl)amino)pyrimidin-4-yl)-1-isopropyl-3-methylquinolin-4(1H)-one]: 40 to 150 nM.
Next, `Cc1c(CN2CCC2)n(C(C)C)c2cc(-c3nc(N[C@@H]4C[C@H]5CO[C@H](O5)[C@H]4O)ncc3F)ccc2c1=O` [Compound 196, 2-(azetidin-1-ylmethyl)-7-(5-fluoro-2-(((1S,3R,4S,5R)-4-hydroxy-6,8-dioxabicyclo[3.2.1]octan-3-yl)amino)pyrimidin-4-yl)-1-isopropyl-3-methylquinolin-4(1H)-one]: 40 to 150 nM; `Cc1c(CN2CC(F)C2)n(C(C)C)c2cc(-c3nc(N[C@@H]4C[C@H]5CO[C@H](O5)[C@H]4O)ncc3F)ccc2c1=O` [Compound 197, 7-(5-fluoro-2-(((1S,3R,4S,5R)-4-hydroxy-6,8-dioxabicyclo[3.2.1]octan-3-yl)amino)pyrimidin-4-yl)-2-((3-fluoroazetidin-1-yl)methyl)-1-isopropyl-3-methylquinolin-4(1H)-one]: 40 to 150 nM.
Next, `Cc1c(CN2[C@@H](C)COC[C@@H]2C)n(C(C)C)c2cc(-c3nc(N[C@@H]4C[C@H]5CO[C@H](O5)[C@H]4O)ncc3F)ccc2c1=O` [Compound 199, 2-(((3S,5S)-3,5-dimethylmorpholino)methyl)-7-(5-fluoro-2-(((1S,3R,4S,5R)-4-hydroxy-6,8-dioxabicyclo[3.2.1]octan-3-yl)amino)pyrimidin-4-yl)-1-isopropyl-3-methylquinolin-4(1H)-one]: ≤ 40 nM; `CC(C)n1c(CN2[C@@H](C)COC[C@@H]2C)c(F)c(=O)c2ccc(-c3nc(N[C@@H]4C[C@H]5CO[C@H](O5)[C@H]4O)ncc3Cl)cc21` [Compound 201, 7-(5-chloro-2-(((1S,3R,4S,5R)-4-hydroxy-6,8-dioxabicyclo[3.2.1]octan-3-yl)amino)pyrimidin-4-yl)-2-(((3S,5S)-3,5-dimethylmorpholino)methyl)-3-fluoro-1-isopropylquinolin-4(1H)-one]: 40 to 150 nM; `CC(C)n1c(CN2CC[C@@H](F)C2)c(F)c(=O)c2ccc(-c3nc(N[C@@H]4C[C@H]5CO[C@H](O5)[C@H]4O)ncc3F)cc21` [Compound 202, 3-fluoro-7-(5-fluoro-2-(((1S,3R,4S,5R)-4-hydroxy-6,8-dioxabicyclo[3.2.1]octan-3-yl)amino)pyrimidin-4-yl)-2-(((R)-3-fluoropyrrolidin-1-yl)methyl)-1-isopropylquinolin-4(1H)-one]: 150 to 1000 nM.
Take `CC(C)n1c(CN2[C@@H](C)COC[C@@H]2C)c(C(F)F)c(=O)c2ccc(-c3nc(N[C@@H]4C[C@H]5CO[C@H](O5)[C@H]4O)ncc3Cl)cc21` [Compound 204, 7-(5-chloro-2-(((1S,3R,4S,5R)-4-hydroxy-6,8-dioxabicyclo[3.2.1]octan-3-yl)amino)pyrimidin-4-yl)-3-(difluoromethyl)-2-(((3S,5S)-3,5-dimethylmorpholino)methyl)-1-isopropylquinolin-4(1H)-one]: the IC50 was in the range of 40 to 150 nM.
Turning to `CC(C)n1c(CN2[C@@H](C)COC[C@@H]2C)cc(=O)c2ccc(-c3nc(N[C@@H]4C[C@H]5CO[C@H](O5)[C@H]4O)ncc3Cl)cc21` [Compound 205, 7-(5-chloro-2-(((1S,3R,4S,5R)-4-hydroxy-6,8-dioxabicyclo[3.2.1]octan-3-yl)amino)pyrimidin-4-yl)-2-(((3S,5S)-3,5-dimethylmorpholino)methyl)-1-isopropylquinolin-4(1H)-one], the IC50 fell in the range of 40 to 150 nM.
Regarding `Cc1c(CN2[C@@H](C)COC[C@@H]2C)n(C(C)C)c2cc(-c3nc(N[C@@H]4C[C@H]5CO[C@H](O5)[C@H]4O)ncc3Cl)ccc2c1=O` [Compound 206, 7-(5-chloro-2-(((1S,3R,4S,5R)-4-hydroxy-6,8-dioxabicyclo[3.2.1]octan-3-yl)amino)pyrimidin-4-yl)-2-(((3S,5S)-3,5-dimethylmorpholino)methyl)-1-isopropyl-3-methylquinolin-4(1H)-one], the IC50 is ≤ 40 nM.
Next, `CC(C)n1c([C@@H]2CC2(F)F)nc2c(F)cc(-c3nc(N[C@@H]4C[C@H]5CO[C@H](O5)[C@H]4O)ncc3Cl)cc21` [Compound 216, (1S,3R,4S,5R)-3-((5-chloro-4-(2-((S)-2,2-difluorocyclopropyl)-4-fluoro-1-isopropyl-1H-benzo[d]imidazol-6-yl)pyrimidin-2-yl)amino)-6,8-dioxabicyclo[3.2.1]octan-4-ol]: ≤ 40 nM; `Cc1c(-c2nc(N[C@@H]3C[C@H]4CO[C@H](O4)[C@H]3O)ncc2Cl)sc2c(C(C)C)cn(C)c(=O)c12` [Compound 223, 2-(5-chloro-2-(((1S,3R,4S,5R)-4-hydroxy-6,8-dioxabicyclo[3.2.1]octan-3-yl)amino)pyrimidin-4-yl)-7-isopropyl-3,5-dimethylthieno[3,2-c]pyridin-4(5H)-one]: ≤ 40 nM; `Cc1c(-c2nc(N[C@@H]3C[C@H]4CO[C@H](O4)[C@H]3O)ncc2C(F)F)sc2c(C(C)C)cn(C)c(=O)c12` [Compound 227, 2-(5-(difluoromethyl)-2-(((1S,3R,4S,5R)-4-hydroxy-6,8-dioxabicyclo[3.2.1]octan-3-yl)amino)pyrimidin-4-yl)-7-isopropyl-3,5-dimethylthieno[3,2-c]pyridin-4(5H)-one]: ≤ 40 nM.
Regarding `CCn1cc(C(C)C)c2sc(-c3nc(N[C@@H]4C[C@H]5CO[C@H](O5)[C@H]4O)ncc3Cl)c(C)c2c1=O` [Compound 230, 5-ethyl-2-(5-chloro-2-(((1S,3R,4S,5R)-4-hydroxy-6,8-dioxabicyclo[3.2.1]octan-3-yl)amino)pyrimidin-4-yl)-7-isopropyl-3-methylthieno[3,2-c]pyridin-4(5H)-one], the IC50 is ≤ 40 nM.
Next, `CC(C)(O)c1cnc2c(F)cc(-c3nc(N[C@@H]4C[C@H]5CO[C@H](O5)[C@H]4O)ncc3Cl)cc2c1Cl` [Compound 252, (1S,3R,4S,5R)-3-((5-chloro-4-(4-chloro-8-fluoro-3-(2-hydroxypropan-2-yl)quinolin-6-yl)pyrimidin-2-yl)amino)-6,8-dioxabicyclo[3.2.1]octan-4-ol]: ≤ 40 nM; `CC(C)(O)c1cnc2c(F)cc(-c3nc(N[C@@H]4C[C@H]5CO[C@H](O5)[C@H]4O)ncc3F)cc2c1Cl` [Compound 255, (1S,3R,4S,5R)-3-((4-(4-chloro-8-fluoro-3-(2-hydroxypropan-2-yl)quinolin-6-yl)-5-fluoropyrimidin-2-yl)amino)-6,8-dioxabicyclo[3.2.1]octan-4-ol]: ≤ 40 nM.
Next, `Cc1c(C(C)(C)O)cnc2c(F)cc(-c3nc(N[C@@H]4C[C@H]5CO[C@H](O5)[C@H]4O)ncc3F)cc12` [Compound 256, (1S,3R,4S,5R)-3-((5-fluoro-4-(8-fluoro-3-(2-hydroxypropan-2-yl)-4-methylquinolin-6-yl)pyrimidin-2-yl)amino)-6,8-dioxabicyclo[3.2.1]octan-4-ol]: ≤ 40 nM.
Turning to `Cc1c(C(C)(C)O)cnc2c(F)cc(-c3nc(N[C@@H]4C[C@H]5CO[C@H](O5)[C@H]4O)ncc3Cl)cc12` [Compound 257, (1S,3R,4S,5R)-3-((5-chloro-4-(8-fluoro-3-(2-hydroxypropan-2-yl)-4-methylquinolin-6-yl)pyrimidin-2-yl)amino)-6,8-dioxabicyclo[3.2.1]octan-4-ol], the IC50 is ≤ 40 nM.
Take `Cc1c(-c2nc(N[C@@H]3C[C@H]4CO[C@H](O4)[C@H]3O)ncc2Cl)sc2c(C(C)C)cnnc12` [Compound 259, (1S,3R,4S,5R)-3-((5-chloro-4-(4-isopropyl-7-methylthieno[3,2-c]pyridazin-6-yl)pyrimidin-2-yl)amino)-6,8-dioxabicyclo[3.2.1]octan-4-ol]: the IC50 is ≤ 40 nM.
As for `COC(=O)N1CC[C@@H](c2nc3c(F)cc(-c4nc(N[C@@H]5C[C@H]6CO[C@H](O6)[C@H]5O)ncc4F)cc3n2C(C)C)C1` [Compound 265, methyl (R)-3-(4-fluoro-6-(5-fluoro-2-(((1S,3R,4S,5R)-4-hydroxy-6,8-dioxabicyclo[3.2.1]octan-3-yl)amino)pyrimidin-4-yl)-1-isopropyl-1H-benzo[d]imidazol-2-yl)pyrrolidine-1-carboxylate], the IC50 was 40 to 150 nM.
`CC(C)n1c([C@@H]2CCOC2)nc2c(F)cc(-c3nc(N[C@@H]4C[C@H]5CO[C@H](O5)[C@H]4O)ncc3Cl)cc21` [Compound 268, (1S,3R,4S,5R)-3-((5-chloro-4-(4-fluoro-1-isopropyl-2-((S)-tetrahydrofuran-3-yl)-1H-benzo[d]imidazol-6-yl)pyrimidin-2-yl)amino)-6,8-dioxabicyclo[3.2.1]octan-4-ol]: the half-inhibitory concentration (IC50) is ≤ 40 nM.

These data come from patent US20250084095A1, “Aminopyrimidine Derivatives as Cyclin-Dependent Kinase Inhibitors” (Accutar Biotechnology Inc., priority 2023, published 2025).
